# Counter-ions that a name gives are not always drawn.
# Key:
# [1] = test system: Carrageenan-induced inflammation in the rear right footpad; experiment: Carrageenan-induced footpad inflammation, foot thickness; type: in vivo, mice; details: for reduction of inflammation (foot thickness): microemulsion 10 mg/ml VB12 analog, 20 microL on shaved belly, 14 days; for reduction of inflammation (foot thickness) vs untreated animals: microemulsion 10 mg/ml, topical on shaved belly, FIG. 8
# [2] = test system: B16 melanoma line; experiment: Topical treatment of B16 melanoma in mice; details: microemulsion 10 mg/ml, 20 microlitre, 2 times per day, after 4 days
# [3] = Distribution of 125I-labeled proteins after transdermal application in a microemulsion; details: conscious Balb/C mice; for counts in the organs of the intestine: presumed due to grooming
# [4] = Weight loss microemulsion in overweight Swiss mice; type: in vivo; details: topical microemulsion 1 mg/ml daily
# Protocol: A microemulsion for topical weight loss was prepared according to the methods described in Examples 1 and 7, and included insulin, or insulin-like growth factor 1 (IGF1) or GHRP-6 at a final concentration of 1 mg/ml. A standardised volume of microemulsion was applied daily (TD) to an area of shaved skin on the belly of conscious Swiss strain mice. A standardised volume of each of insulin, or insulin-like growth factor 1 (IGF1) or GHRP-6 at a final concentration of 1 mg/ml in saline was injected sub cutaneously (SC) into the belly region of Swiss strain mice. Animal weights were measured 3 times per week. Following 2 weeks of treatment the mice were euthanased and their tissues removed and weighed. The weight of the animals with time is plotted in FIG. 11. It can be seen that there was a decrease in body weight of animals treated with the topical insulin of up to 15% within 2 weeks (FIG. 11).
# [5] = microemulsions compared to a hydrogel; cited from earlier work
molecule,measurement,setting,value
"C/C1=C2/[N-][C@H]([C@H](CC(N)=O)[C@@]2(C)CCC(=O)NC[C@@H](C)OP(=O)([O-])O[C@H]2[C@@H](O)[C@@H](n3cnc4cc(C)c(C)cc43)O[C@@H]2CO)[C@]2(C)N=C(/C(C)=C3N=C(/C=C4N=C1[C@@H](CCC(N)=O)C\4(C)C)[C@@H](CCC(N)=O)[C@]\3(C)CC(N)=O)[C@@H](CCC(N)=O)[C@]2(C)CC(N)=O.[Co+3].[OH-] [hydroxycobalamin, reference compound]",reduction of inflammation (foot thickness),"[1]; C57/BI6 mice, FIG. 7",active in reducing inflammation
cyanocobalamin [reference compound],reduction of inflammation (foot thickness),"[1]; C57/BI6 mice, FIG. 7",active in reducing inflammation
H-Met-Gln-Met-Asn-Ser-OH [MLIF-C],reduction of inflammation (foot thickness) vs untreated animals,[1]; C57/BI6 mice,active in reducing inflammation
H-Met-Gln-Glu-Asn-Ser-OH [MLIF-A],reduction of inflammation (foot thickness) vs untreated animals,[1]; C57/BI6 mice,active in reducing inflammation
C/C1=C2/[N-][C@H]([C@H](CC(N)=O)[C@@]2(C)CCC(=O)NC[C@@H](C)OP(=O)([O-])O[C@H]2[C@@H](O)[C@@H](n3cnc4cc(C)c(C)cc43)O[C@@H]2CO)[C@]2(C)N=C(/C(C)=C3N=C(/C=C4N=C1[C@@H](CCC(N)=O)C\4(C)C)[C@@H](CCC(N)=O)[C@]\3(C)CC(N)=O)[C@@H](CCC(N)=O)[C@]2(C)CC(N)=O.[CH2-][C@H]1O[C@@H](n2cnc3c(N)ncnc32)[C@H](O)[C@@H]1O.[Co] [adenosyl-cobalamin],comparison of reduction in inflammation among the compositions,"[1]; C57/BI6 mice, VB12 analog microemulsions, FIG. 7",greatest reduction in inflammation
same,reduction of inflammation (foot thickness),"[1]; C57/BI6 mice, FIG. 7",active in reducing inflammation
same,reduction of inflammation (foot thickness) vs untreated animals,[1]; C57/BI6 mice,active in reducing inflammation
same,level of inflammation in the rear right foot-pad vs untreated animals,"[1]; C57/BI6 mice, microemulsions of Example 13, topical on shaved belly, FIG. 6",significantly lower level of inflammation
O=c1[nH]cc(F)c(=O)[nH]1 [5-fluorouracil],growth rate of the tumour,[2],reduction in growth rate of the tumour
H-Met-Gln-Ile-Asn-Ser-OH [MLIF-B],reduction of inflammation (foot thickness) vs untreated animals,[1]; C57/BI6 mice,active in reducing inflammation
insulin: insulin in a microemulsion (125I-labeled in Example 5; 1 mg/ml in Example 20),"appearance of 125I in skin, muscle and shaved area","[3]; overnight, FIG. 4","rapid appearance of ^125I in skin, muscle and the shaved area of the skin"
same,counts in the organs of the intestine,[3]; overnight,"appearance of counts in the stomach, SI-1, SI-2, caecum and faeces"
same,change of organ weights compared with other groups,"[4]; 2 weeks, FIG. 10",greatest change
same,muscle mass,"[4]; 2 weeks, FIG. 10",increased
same,weight of skin,"[4]; 2 weeks, FIG. 10",significantly reduced
same,decrease in body weight,"[4]; within 2 weeks, FIG. 11",up to 15%
N.N.O=C([O-])C1(C(=O)[O-])CCC1.[Pt+2] [Carboplatin],body weight of the animals,[2],no reduction in body weight
same,growth rate of the tumour,[2],reduction in growth rate of the tumour
EGF: 125I-labeled Epidermal Growth Factor in a microemulsion,"appearance of 125I in skin, muscle and shaved area","[3]; after 3 hours, FIG. 3","rapid appearance of ^125I in skin, muscle and the shaved area of the skin"
same,counts in the organs of the intestine,[3]; after 3 hours,"appearance of counts in the stomach, SI-1, SI-2, caecum and faeces"
adalimumab,level of inflammation in the rear right foot-pad vs untreated animals,"[1]; microemulsion, TNFRII-Fc 5 mg/ml or adalimumab 4 mg/ml, topical, FIG. 9",significantly lower levels of inflammation
CCCNC(C)C(=O)Nc1ccccc1C (stereo not shown) [prilocaine hydrochloride],increase of transdermal flux,[5],~10 times
C/C1=C2/[N-][C@H]([C@H](CC(N)=O)[C@@]2(C)CCC(=O)NC[C@H](C)OP(=O)([O-])O[C@H]2[C@@H](O)[C@@H](n3cnc4cc(C)c(C)cc43)O[C@@H]2CO)[C@]2(C)N=C(/C(C)=C3N=C(/C=C4N=C1[C@@H](CCC(N)=O)C\4(C)C)[C@@H](CCC(N)=O)[C@]\3(C)CC(N)=O)[C@@H](CCC(N)=O)[C@]2(C)CC(N)=O.[Co+2] [cobalamin],reduction of inflammation (foot thickness),"[1]; C57/BI6 mice, FIG. 7",active in reducing inflammation
N.N.[Cl][Pt][Cl] [Cis-Platinum],body weight of the animals,[2],no reduction in body weight
same,growth rate of the tumour,[2],reduction in growth rate of the tumour

# Reference: patent US20070243132A1, “Transdermal delivery of pharmaceutical agents” (priority 2005, published 2007)
